In EP1605929B1, “NON-STEROIDAL ANTI-INFLAMMATORY DRUG DOSING REGIMEN” (McNeil-PPC, Inc., priority 2003, dated 2004):

Tests used:
[1] = tested on: moderate to severe post-operative dental pain; experiment: PK/PD dental pain study, pain relief scores and pain intensity differences over a 12 hour observation period; type: in vivo, human
Description: A double-blind, randomized, parallel, placebo-controlled, single center, PK/PD dental pain study was conducted over a 12 hour observation period to evaluate the pharmacokinetic, pharmacodynamic, efficacy and safety profiles of certain ibuprofen dosing regimens. Specifically, a single dose of 600 mg ibuprofen extended release caplets was compared with equivalent total doses of ibuprofen immediate release 200 mg caplets administered in three different dosing regimens as well as placebo in the treatment of moderate to severe post-operative dental pain.
The ibuprofen was administered as ibuprofen extended release 600 mg caplets or one or more ibuprofen immediate release 200 mg caplets.
The patients evaluated in this study consisted of male or non-pregnant and non-lactating female out-patient volunteers, 16 years of age or older, complaining of moderate to severe pain following the surgical extraction of three or four third molars with at least one partial or complete bony impacted third mandibular molar. The term impacted included: partial bony impaction, bony impaction, or complicated bony impaction. A total of 210 patients were entered into the study. 208 patients were eligible for the efficacy analyses.
All patients who met the entrance criteria were enrolled in one of two study sub-groups. One sub-group of patients had both pharmacokinetic and pharmacodynamic evaluation (PK group). The other sub-group of patients had only the analgesic efficacy evaluations (non-PK group). A separate randomization schedule was used for each of the two sub-groups. Patients from both subgroups were assigned at random to one of the five following treatments:
Patients' assessments of pain intensity and pain relief as well as blood samples for plasma ibuprofen analysis were obtained at the study site at hours 0, 0.25, 0.5, 1, 1.5, 2, 2.5, 3, 4, 4.5, 5, 6, 7, 8, 8.5, 9, 10, 11 and 12. A stopwatch technique was used to measure the onset of meaningful pain relief.

[2] = Therapeutic duration of action of an effective immediate release dose, from dosing instructions in product labeling
Description: As used herein, "ATDAIRD" shall mean the average therapeutic duration of action of an effective immediate release dose" of a particular active ingredient. For example, the typical duration of action of an immediate release dose of ibuprofen or ketoprofen is about 4 to about 6 hours. […] The therapeutic duration of action of a particular active ingredient can readily be determined from the dosing instructions in the labeling for immediate release products containing that particular active ingredient.

Row | Compound | pain relief ([1]; 400/200/0 administration (immediate release, 400 mg at 0 hour; 200 mg at 4 hours), entire 12 hour study period, Figure 2) | pain relief ([1]; 400/200/0 treatment (immediate release, 400 mg at 0 hour; 200 mg at 4 hours), first four hours, Figure 2) | pain relief scores ([1]; 400/200/0 treatment, 4 to 12 hour interval, no further ibuprofen after the first four hours, Figure 2) | pain intensity differences (PID) ([1]; 400/200/0 treatment, 12 hour study period, particularly after the four hour mark, Figure 3) | pain relief ([1]; 600/0/0 immediate release treatment (600 mg single dose at 0 hour), first four hours, Figure 2) | ATDAIRD (average therapeutic duration of action of an effective immediate release dose) [2] [h]
1 | CC(C)Cc1ccc(C(C)C(=O)O)cc1 (centres unmarked) [ibuprofen, 2-(4-isobutylphenyl)-propionic acid] | excellent pain relief | superior pain relief over the other treatments | highest pain relief scores | best PID | superior pain relief over the other treatments | 5
2 | CC(C(=O)O)c1cccc(C(=O)c2ccccc2)c1 (centres unmarked) [ketoprofen] |  |  |  |  |  | 5
3 | COc1ccc2cc([C@H](C)C(=O)O)ccc2c1 [naproxen] |  |  |  |  |  | 10
